Laboratory results reported in patent US11917959B2, “Multi-ear system to enhance monocot plant yield” (Monsanto Technology LLC, priority 2015, dated 2024).

How the values were obtained:
Assay type in all cases: in vivo
haploid mother plant = assay: Tiller induction in doubled haploid maize (Example 7)
Protocol: A haploid mother plant will be subjected to doubling treatment and thereafter planted in a pot, the soil surrounding the roots drenched with 100 mL of 2.5% of paclobutrazol, and then tended standard maize greenhouse growing conditions for several days. […] One of the resulting daughter tiller plants can be separated from the mother plant, transplanted into a separate pot, and grown via standard greenhouse management procedures to eventually recover a daughter plant with normal haploid morphology.

[1] = system: diploid maize plants of a common inbred line; assay: Tiller induction in diploid maize (Example 6)
Protocol: Diploid maize plants of a common inbred line were subjected to a tiller induction treatment comprising drenching the soil surrounding the roots with 100 mL of a 2.5% PBZ solution (v/v; 0.4% of active ingredient) approximately one week after germination and then allowed to grow to sexual maturity in 10-inch pots a greenhouse. A control group of plants were grown under identical circumstances except that they were not subjected to the tiller induction treatment.
Three treatment groups were then formed from the tillers: tillers of the “Co-hab” treatment were allowed to continue growing in the same pot with the mother plant; those of the “-Mother” treatment also remained in the same pot, but the mother plant was removed from the pot; and those of the “Transplanted” treatment group were transplanted from the pot containing the mother plant into separate 10-inch pots, one plant per pot. Any naturally-occurring tillers produced by the control group were allowed to grow in the same pot as the mother plant, similar to the co-hab treatment. All plants were allowed to grow to sexual maturity and self-pollinated when silks and tassels formed. When seed set was complete, the average total number of seeds produced by all plants deriving from the same mother plant seed were counted and plotted in FIG. 3.

[2] = system: DH0 maize plants, Germplasm A; assay: Doubling efficiency after co-dominant ear induction (Example 2); conditions: for DE04 doubling efficiency / DE20 doubling efficiency / DE30 doubling efficiency / DE50 doubling efficiency: Germplasm A DH0, 60 mL 2.5% PBZ
Description: An F1 hybrid-derived haploid induction population derived from female inbred maize plant Germplasm A was germinated in soil and tended in standard greenhouse maize growing conditions for approximately seven days. Seedlings were then subjected to a bulk colchicine-based chromosome doubling treatment as described above. Following treatment, seedlings were transplanted into pots and tended in a greenhouse at standard greenhouse maize growing conditions to recover.
Twenty-nine days after the colchicine doubling treatment, 77 of the DH0 seedlings were subjected to a co-dominant ear induction treatment comprising the addition of 60 mL of 2.5% PBZ (v/v) in water, which was poured into the soil surrounding the roots of each plant. The seedlings were then tended in standard greenhouse maize growing conditions until they flowered, at which time each plant that produced pollen was self-pollinated. After approximately 3-4 weeks, ears were harvested and the kernels (DH1 seeds) that formed on the treated DH0 plants were counted to determine doubling efficiencies.
Doubling efficiencies (DE) were calculated under four different constraints, depending on the minimum number of kernels an ear had to produce in order to even be included in the calculation. DE04 represents the portion of all the doubled DH0 plants that produced a total of at least four seeds when all ears were considered. DE20 represents the portion of all the doubled DH0 plants that produced a total of at least 20 kernels when all ears were considered. Similarly, DE30 represents the portion of doubled DH0 plants that produced a total of at least 30 kernels when all ears were considered, and DE50 represents the portion of doubled DH0 plants that produced a total of at least 50 kernels when all ears were considered.
(§1) Furthermore, the above doubling efficiencies were calculated once by considering only the kernels that formed on the primary ear of each plant (Ear1), once by considering only the kernels that formed on the primary and secondary ear of each plant (Ear2), once by considering only the kernels that formed on the primary, secondary, and tertiary ear of each plant (Ear3), and finally by considering all the kernels that formed on all the ears of each plant (Earall).

[3] = system: haploid maize populations; assay: Doubling efficiency of four germplasms after co-dominant ear induction (Example 3); parameters: DE50: unit not given beside the values; conditions: 60 mL 2.5% PBZ at V7 or V8
Protocol: Two F1 hybrid-derived (one male and one female) haploid populations (referred to herein as H1 and H2) and two inbred-derived haploid lines (male Germplasm B and female Germplasm A) were tested in this experiment. Seven days after planting, several dozen seedlings from each group were removed from the soil and subjected to a bulk colchicine-based chromosome doubling treatment as described above. After the chromosome doubling treatment, seedlings were transplanted to soil and tended in a greenhouse at standard maize growing conditions. When the seedlings had reached approximately the V7 or V8 stage (approximately 29 days after doubling under the growing conditions used), the seedlings were subjected to co-dominant ear induction treatment comprising 60 mL of 2.5% PBZ added to the soil surrounding the base of each stem.
The seedlings were then tended in standard greenhouse maize growing conditions until they flowered, at which time each plant that produced pollen was self-pollinated and then left undisturbed to await fertilization and kernel production. After approximately 2-3 weeks, ears were harvested and the kernels that formed on them (DH1) were counted to determine doubling efficiencies.
as §1, with “Doubling efficiencies (DE) were calculated under the different constraints described in the previous example to generate values for DE04, DE20, DE30, and DE50 for each of the four genotypes. Furthermore,” for “Furthermore,”

[4] = Ear 2 (primary and secondary ear)
[5] = Ear 3 (primary, secondary, tertiary ear)

## CC(C)(C)[C@@H](O)[C@@H](Cc1ccc(Cl)cc1)n1cncn1 (relative stereo) [PBZ, (±)-(R*, R*)-beta-((4-chlorophenyl)methyl)-alpha-(1,1,-dimethylethyl)-1H-1,2,4,-triazole-1-ethanol]
Haploid mother plant; 100 mL of 2.5% paclobutrazol
  DH1 seeds yielded by transplanted daughter tiller plant when selfed: several dozen
Haploid mother plant; 100 mL of 2.5% paclobutrazol soil drench after doubling treatment
  effect on mother plant: shortened internodes and increased tiller production
[1]; 100 mL 2.5% PBZ soil drench
  effect on mother plants: shortened internodes, and induced the mother plants to produce tillers
[1]; transplanted treatment group, 100 mL 2.5% PBZ one week after germination
  number of seeds vs control group: more than twice
[2]; Ear 1 only
  DE04 doubling efficiency: 71%
  DE20 doubling efficiency: 37%
  DE30 doubling efficiency: 26%
  DE50 doubling efficiency: 23%
[2]; Ear2
  reduction in DE between DE04 and DE20: 22%
[2]; [4]
  DE04 doubling efficiency: 76%
  DE20 doubling efficiency: 59%
  DE30 doubling efficiency: 47%
  DE50 doubling efficiency: 36%
[2]; [5]
  DE04 doubling efficiency: 76%
  DE20 doubling efficiency: 65%
  DE30 doubling efficiency: 58%
  DE50 doubling efficiency: 50%
[2]; Ear All
  DE04 doubling efficiency: 76%
  DE20 doubling efficiency: 68%
  DE30 doubling efficiency: 58%
  DE50 doubling efficiency: 52%
[3]; Ear1, Control A
  DE04: 72.9
  DE20: 60.7
  DE30: 48.6
  DE50: 48.6
[3]; Ear1, Control B
  DE04: 64.8
  DE20: 44.5
  DE30: 40.5
  DE50: 32.4
[3]; Ear1, Germplasm A
  DE04: 64.6
  DE20: 37.4
  DE30: 30.6
  DE50: 23.8
[3]; Ear1, Germplasm B
  DE04: 56.7
  DE20: 40.5
  DE30: 40.5
  DE50: 40.5
[3]; Earall, Control A
  DE04: 81
  DE20: 76.9
  DE30: 76.9
  DE50: 64.8
[3]; Earall, Control B
  DE04: 68.8
  DE20: 56.7
  DE30: 56.7
  DE50: 44.5
[3]; Earall, Germplasm A
  DE04: 81.6
  DE20: 71.4
  DE30: 71.4
  DE50: 64.6
[3]; Earall, Germplasm B
  DE04: 68.8
  DE20: 48.6
  DE30: 44.5
  DE50: 44.5
